pIC50, pKi: −log10 of the molar value. Like-named read-outs stand apart in the source and are kept apart here.
How the values were obtained:
Format in all cases: biochemical
cathepsin B = biological target: T1, cathepsin B (Homo sapiens, UniProt P07858); assay: Cathepsin B inhibition (KI); conditions: Table 1, Z-Leu--AA--CONHR; read-out: KI Cat B
T1 construct: purchased Sigma
Protocol: (§1) HEPES, heparin, and A23187 were obtained from Calbiochem. Suc-Leu-Tyr-AMC and chromogenic substrates were obtained from Sigma. Calpain I was purified from human erythrocytes according to the method of Kitahara (Kitahara et al., J. Biochem. 95, 1759-1766) omitting the Blue-Sepharose step. Calpain II from rabbit muscle and cathepsin B were purchased from Sigma. Papain was purchased from Calbiochem.
(§2) Peptide α-ketoamides were assayed as reversible enzyme inhibitors. Various concentrations of inhibitors in Me2 SO were added to the assay mixture which contained buffer and substrate. The reaction was started by the addition of the enzyme and the hydrolysis rates were followed spectrophotometrically or fluorimetrically.
(§3) Calpain I from human erythrocytes and calpain II from rabbit were assayed using Suc-Leu-Tyr-AMC Sasaki et al., J. Biol. Chem. 259, 12489-12494 (1984); incorporated herein by reference!, and the AMC (7-amino-4-methylcoumarin) release was followed fluorimetrically (excitation at 380 nm, and emmision at 460 nm). Calpains were assayed in 25 mM Tris pH=8.0, 10 mM CaC12. Fluorescence was followed using a Gilson FL-1A fluorometer or a Perkin-Elmer 203 Fluorescence spectrometer. Cathepsin B was assayed in 20 mM sodium acetate pH=5.2, 0.5 mM dithiothreitol using Bz-Phe-Val-Arg-p-nitroanilide as substrate. Alternately, cathepsin B was assayed with Z-Arg-Arg-AFC Barrett and Kirschke, Methods Enzymol. 80, 535-561 (1981); incorporated herein by reference!, and the AFC (7-amino-4-trifluoromethylcoumarin) release was followed fluorimetrically (excitation at 400 nm and emmision at 505 nm). Papain was assayed in 100 mM KPO4, 1 mM EDTA, 2.5 mM cysteine pH=6.0 using Bz-Arg-AMC or Bz-Arg-NA Kanaoka et al., Chem. Pharm. Bull. 25, 3126-3128 (1977); incorporated herein by reference! as a substrate. The AMC (7-amino-4-methylcoumarin) release was followed fluorimetrically (excitation at 380 nm, and emmision at 460 nm). Enzymatic hydrolysis rates were measured at various substrate and inhibitor concentrations, and KI values were determined by either Lineweaver-Burk plots or Dixon plots.
(§4) A 0.1M Hepes, 0.5M NaCl, pH 7.5 buffer was utilized for human leukocyte elastase (HLE), porcine pancreatic elastase (PPE), chymotrypsin and cathepsin G. A 0.1 Hepes, 0.01 M CaCl2, pH 7.5 buffer was utilized for trypsin, plasmin, and coagulation enzymes. A 50 mM Tris.HCl, 2 mM EDTA, 5 mM cysteine, pH 7.5 was used as a buffer for papain. A 88 mM KH2 PO4, 12 mM Na2 HPO4, 1.33 mM EDTA, 2.7 mM cysteine, pH 6.0 solution was used as a buffer for cathepsin B. A 20 mM Hepes, 10 mM CaCl2, 10 mM mercatoethanol, pH 7.2 buffer was utilized for calpain I and calpain II.

[1] = biological target: T2, human leukocyte elastase (HLE) (Homo sapiens, UniProt P08246); assay: HLE inhibition, MeO-Suc-Ala-Ala-Pro-Val-NA hydrolysis; conditions: for pIC50: Table 4, Z-Leu--AA--CONH-R; for pKi: Table 4, in brackets under the IC50
T2 sequence (P08246 30-267): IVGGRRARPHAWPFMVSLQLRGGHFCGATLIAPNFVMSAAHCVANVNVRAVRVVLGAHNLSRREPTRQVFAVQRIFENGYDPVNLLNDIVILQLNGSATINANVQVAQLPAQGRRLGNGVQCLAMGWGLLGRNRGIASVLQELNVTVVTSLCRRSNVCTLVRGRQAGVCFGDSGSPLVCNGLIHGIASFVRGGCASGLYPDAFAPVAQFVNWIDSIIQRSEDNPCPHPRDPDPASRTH
Protocol: as §2, §4
(§5) HLE and PPE were assayed with MeO-Suc-Ala-Ala-Pro-Val-NA and Suc-Ala-Ala-Ala-NA, respectively Nakajima et al., J. Biol. Chem. 254, 4027-4032 (1979); incorporated herein by reference!. Human leukocyte cathepsin G and chymotrypsin Aα were assayed with Suc-Val-Pro-Phe-NA Tanaka et al., Biochemistry 24, 2040-2047 (1985); incorporated herein by reference!. The hydrolysis of peptide 4-nitroanilides was measured at 410 nm ε410 =8800 M^-1 cm^-1; Erlanger et al., Arch. Biochem. Biophys. 95, pp 271-278 (1961); incorporated herein by reference!. Trypsin, thrombin, human plasma kallikrein, porcine pancreatic kallikrein, human factor XIa, and human plasmin were assayed with Z-Arg-SBzl or Z-Gly-Arg-SBu-i McRae et al., Biochemistry 20, 7196-7206 (1981); incorporated herein by reference!. All peptide thioester hydrolysis rates were measured with assay mixtures containing 4,4'-dithiodipyridine ε324 =19800 M^-1 cm^-1; Grasetti & Murray, Arch. Biochem. Biophys. 119, 41-49 (1967); incorporated herein by reference!.

calpain II from rabbit = assay: Calpain II inhibition, Suc-Leu-Tyr-AMC hydrolysis (KI); conditions: Table 1, Z-Leu--AA--CONHR; read-out: KI Cal II
Protocol: as §1, §2, §3, §4

[2] = biological target: T3, Calpain I from human erythrocytes (Homo sapiens, UniProt P07384); assay: Calpain I inhibition, Suc-Leu-Tyr-AMC hydrolysis (KI); conditions: read-out: KI Cal I
T3 construct: Calpain I was purified from human erythrocytes; from tissue; host or cells: human erythrocytes
T3 sequence (P07384 1-714): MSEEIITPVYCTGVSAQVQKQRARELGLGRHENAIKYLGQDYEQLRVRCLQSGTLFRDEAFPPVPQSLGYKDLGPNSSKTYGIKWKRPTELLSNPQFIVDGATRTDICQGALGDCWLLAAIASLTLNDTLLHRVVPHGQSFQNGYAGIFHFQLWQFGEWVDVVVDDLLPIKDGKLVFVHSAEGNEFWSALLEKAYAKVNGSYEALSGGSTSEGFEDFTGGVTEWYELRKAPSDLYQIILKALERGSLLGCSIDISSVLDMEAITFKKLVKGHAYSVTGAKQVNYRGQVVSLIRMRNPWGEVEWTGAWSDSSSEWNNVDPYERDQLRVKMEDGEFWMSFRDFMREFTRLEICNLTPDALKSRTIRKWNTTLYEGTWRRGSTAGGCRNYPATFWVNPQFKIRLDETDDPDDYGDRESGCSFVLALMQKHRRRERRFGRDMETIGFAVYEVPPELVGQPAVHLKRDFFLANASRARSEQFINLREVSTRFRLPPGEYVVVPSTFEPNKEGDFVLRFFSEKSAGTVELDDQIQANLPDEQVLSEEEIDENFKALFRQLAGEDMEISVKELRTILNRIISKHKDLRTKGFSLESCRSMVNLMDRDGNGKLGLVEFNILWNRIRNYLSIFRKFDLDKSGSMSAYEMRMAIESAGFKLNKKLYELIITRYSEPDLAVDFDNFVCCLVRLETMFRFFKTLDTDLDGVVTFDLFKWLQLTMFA
T3 sequence (P04632 1-268 partner): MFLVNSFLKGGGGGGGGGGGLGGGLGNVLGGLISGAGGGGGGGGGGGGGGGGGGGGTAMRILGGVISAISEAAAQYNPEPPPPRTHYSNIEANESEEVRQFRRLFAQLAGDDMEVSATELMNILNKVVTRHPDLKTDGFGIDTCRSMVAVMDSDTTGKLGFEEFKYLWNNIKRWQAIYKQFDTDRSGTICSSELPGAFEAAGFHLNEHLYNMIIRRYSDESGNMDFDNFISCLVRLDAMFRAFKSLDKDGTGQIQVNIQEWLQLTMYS
Procedure, shortened: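 Reversible KI values came from Lineweaver-Burk or Dixon plots of rates at varied substrate and inhibitor (in Me2SO) levels, with reactions started by enzyme. Calpains (human erythrocyte I, rabbit muscle II) hydrolysed Suc-Leu-Tyr-AMC in 25 mM Tris pH 8.0, 10 mM CaCl2 (ex 380/em 460 nm). Cathepsin B used Bz-Phe-Val-Arg-pNA (20 mM acetate pH 5.2, 0.5 mM DTT) or Z-Arg-Arg-AFC.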

[3] = biological target: T4, Human leukocyte cathepsin G (Homo sapiens, UniProt P08311); assay: Cathepsin G inhibition, Suc-Val-Pro-Phe-NA hydrolysis; conditions: for pIC50: Table 4, Z-Leu--AA--CONH-R; for pKi: Table 4, in brackets under the IC50, read-out: KI Cat G
T4 sequence (P08311 21-255): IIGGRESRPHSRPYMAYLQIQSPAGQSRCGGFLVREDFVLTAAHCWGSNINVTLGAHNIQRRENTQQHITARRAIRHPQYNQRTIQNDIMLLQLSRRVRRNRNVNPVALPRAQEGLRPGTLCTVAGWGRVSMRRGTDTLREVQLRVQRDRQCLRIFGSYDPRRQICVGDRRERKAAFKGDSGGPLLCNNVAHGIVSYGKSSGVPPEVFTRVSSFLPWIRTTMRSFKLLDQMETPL
Protocol: as §2, §4, §5

Compound | pIC50 [1] | pIC50 [3] | also measured
CCC(NC(=O)C(CC(C)C)NC(=O)OCc1ccccc1)C(=O)C(=O)NCCCN1CCOCC1 (stereo not drawn) [Z-Leu-Abu-CONH-(CH2)3 -4-morpholinyl, Z-Leu-Abu-CONH--(CH2)3 -4-Morpholinyl] | < 3.66 | – | pKi (cathepsin B): 5.16; pKi (calpain II from rabbit): 7.39; pKi ([2]; Table 1, Z-Leu--AA--CONHR): 6.85
CC[C@H](NC(=O)[C@H](CC(C)C)NC(=O)OCc1ccccc1)C(=O)C(=O)NCC(O)c1ccc(OCc2ccccc2)cc1 (stereo partly drawn) [Z-Leu-Abu-CONH--CH2 CH(OH)C6 H4 (4-OCH2 Ph)] | – | < 3.99 | pKi ([2]; Table 2, Z-Leu--AA--CONH--CH2 CH(OH)-R): 7.10
CCCCCCCNC(=O)C(=O)C(CC)NC(=O)C(CC(C)C)NC(=O)OCc1ccccc1 (stereo not drawn) [Z-Leu-Abu-CONH-C7 H15] | 4.28 | < 3.94 | –
CCCCCCCCNC(=O)C(=O)C(CC)NC(=O)C(CC(C)C)NC(=O)OCc1ccccc1 (stereo not drawn) [Z-Leu-Abu-CONH-C8 H17] | 4.35 | < 3.66 | –
CCCCCCCCCNC(=O)C(=O)C(CC)NC(=O)C(CC(C)C)NC(=O)OCc1ccccc1 (stereo not drawn) [Z-Leu-Abu-CONH-C9 H19] | 4.11 | 3.82 | –
CCC(NC(=O)C(CC(C)C)NC(=O)OCc1ccccc1)C(=O)C(=O)NCc1ccco1 (stereo not drawn) [Z-Leu-Abu-CONH-CH2 -2-furyl, Z-Leu-Abu-CONH--CH2 -2-Furyl] | 4.42 | – | pKi (cathepsin B): 5.22; pKi (calpain II from rabbit): 7.48; pKi ([2]; Table 1, Z-Leu--AA--CONHR): 6.10
CCC(NC(=O)C(CC(C)C)NC(=O)OCc1ccccc1)C(=O)C(N)=O (stereo not drawn) [Z-Leu-Abu-CONH-H] | < 3.92 | < 3.66 | –
CCC(NC(=O)C(CC(C)C)NC(=O)OCc1ccccc1)C(=O)C(=O)NCC(C)C (stereo not drawn) [Z-Leu-Abu-CONH-i-Bu] | 4.11 | 3.87 | –
CCCCNC(=O)C(=O)C(CC)NC(=O)C(CC(C)C)NC(=O)OCc1ccccc1 (stereo not drawn) [Z-Leu-Abu-CONH-n-Bu] | 4.20 | 3.83 | –
CCCNC(=O)C(=O)C(CC)NC(=O)C(CC(C)C)NC(=O)OCc1ccccc1 (stereo not drawn) [Z-Leu-Abu-CONH-n-Pr] | < 3.92 | < 3.66 | –
CC(C)CC(NC(=O)OCc1ccccc1)C(=O)NC(Cc1ccccc1)C(=O)C(=O)NCCc1ccccc1 (stereo not drawn) [Z-Leu-Phe-CONH-(CH2)2 Ph] | 4.62 | 3.95 | –
CC(C)CC(NC(=O)OCc1ccccc1)C(=O)NC(Cc1ccccc1)C(=O)C(=O)NCC(O)c1ccc(OCc2ccccc2)cc1 (stereo not drawn) [Z-Leu-Phe-CONH--CH2 CH(OH)C6 H4 (4-OCH2 Ph)] | 4.40 | 4.24 | –
CC(C)C[C@H](NC(=O)OCc1ccccc1)C(=O)N[C@@H](Cc1ccccc1)C(=O)C(=O)NCC(O)c1ccc(OCc2ccccc2)c(OCc2ccccc2)c1 (stereo partly drawn) [Z-Leu-Phe-CONH-C6 H3 (3,4-(OCH2 Ph)2), Z-Leu-Phe-CONH--CH2 CH(OH)C6 H3 (3,4-(OCH2 Ph)2)] | 4.66 | 4.18 | –
CC(C)CC(NC(=O)OCc1ccccc1)C(=O)NC(Cc1ccccc1)C(=O)C(=O)NCc1ccccc1 (stereo not drawn) [Z-Leu-Phe-CONH-CH2 Ph] | 4.40 | 4.20 | –
CCNC(=O)C(=O)[C@H](Cc1ccccc1)NC(=O)[C@H](CC(C)C)NC(=O)OCc1ccccc1 [Z-Leu-Phe-CONH-Et, Z-Leu-Phe-CO--NH-Et] | 4.13 | 4.04 | –
CC(C)C[C@H](NC(=O)OCc1ccccc1)C(=O)N[C@@H](Cc1ccccc1)C(=O)C(N)=O [Z-Leu-Phe-CONH-H] | 4.00 | 4.10 | –
CC(C)CNC(=O)C(=O)C(Cc1ccccc1)NC(=O)C(CC(C)C)NC(=O)OCc1ccccc1 (stereo not drawn) [Z-Leu-Phe-CONH-i-Bu] | 4.70 | 4.35 | pKi [1]: 5.00; pKi [3]: 4.68
CCCCNC(=O)C(=O)C(Cc1ccccc1)NC(=O)C(CC(C)C)NC(=O)OCc1ccccc1 (stereo not drawn) [Z-Leu-Phe-CONH-n-Bu] | 4.80 | 4.17 | pKi [1]: 4.96; pKi [3]: 5.31
CCCNC(=O)C(=O)C(Cc1ccccc1)NC(=O)C(CC(C)C)NC(=O)OCc1ccccc1 (stereo not drawn) [Z-Leu-Phe-CONH-n-Pr] | 4.36 | 4.19 | –
CCC(C)NC(=O)C(=O)C(Cc1ccccc1)NC(=O)C(CC(C)C)NC(=O)OCc1ccccc1 (stereo not drawn) [Z-Leu-Phe-CONH-sec-Bu] | 4.30 | 3.89 | –
Z-Leu-Phe-CONH--CH2 CH(OH)C6 H4 (4-OPh) [Z-Leu-Phe-CONH-CH2 CH(OH)-C6 H4 (4-OPh)] | 4.49 | < 3.99 | –

Source: patent US5514694A, “Peptidyl ketoamides” (Georgia Tech Research Corp, priority 1993, dated 1996)
